PMC11763059, “GENI as an AMPK Activator Binds α and γ Subunits and Improves the Memory Dysfunction of Alzheimer’s Disease Mouse Models via Autophagy and Neuroprotection” (Antioxidants, 2025)

Key:
[1] = test system: T1, AMPK α subunit ASP166 mutated into ALA166; test: SPR analysis, AMPK α subunit D166 replaced with A166; assay type: binding
T1 construct: His (N); made in house
Method: Mammalian AMPK subunits (His-α1, β1, and γ1) were cloned into a pET-3d vector, and protein expression and purification were similar to the literature.
SPR analysis was performed with a Biacore T200 instrument (GE Healthcare). Firstly, the purred His-tagged AMPK containing α1β1γ1 protein was captured onto an activated carboxymethylated 5 (CM5) chip using amine coupling to levels ranging from 4000 RU to 6000 RU. Secondly, GENI was dissolved in PBS-P buffer solution (0.05% (v/v) Tween 20 and PBS), and the concentration of GENI was 64 μM. Thirdly, the solution of GENI was diluted to 32 μM, 16 μM, 8 μM, 4 μM, 2 μM, 1 μM and 0.5 μM with PBS-P buffer solution. The sample was filtered by pumping through a […] membrane. A gradient concentration of GENI was injected at a flow rate of 30 μL/min in a running buffer (0.05% (v/v) Tween 20 and PBS). The data were analyzed with Biacore evaluation software (T200 version 2.0) and fitted to the 1:1 Langmuir binding model, and the kinetic parameters were derived.
The non-covalent interaction between drugs and proteins is an important way to exert drug efficacy, and its mode of action and binding affinity usually determine the utilization and biological activity of drugs. AMPK is a heterotrimer complex consisting of an α subunit containing the kinase domain and two regulatory subunits (β- and γ-). […]

PI3K = test: Drug affinity responsive target stability (DARTS), PI3K; assay type: binding; conditions: 0.1–100 μM GENI, protein: pronase 50:1
Method: Cells were lysed by RIPA lysis buffer, and the protein concentration was measured. The lysate was divided into six groups. Before incubation with protease (protein: pronase = 50:1 w/w for PI3K and AMPK detection, 5:1 for MAPK detection, 100:1 for p53 detection) for 25 min in 25 °C, 0.1–100 μM GENI was added to lysates and incubated for 2 h at room temperature. The samples were mixed with loading buffer and then separated on 8% SDS-PAGE for immunoblotting analysis.

MAPK = test: Cellular thermal shift assay (CETSA) in PC12 cells, MAPK; assay type: binding; conditions: 10 μM GENI 2 h, 60 °C to 80 °C
Method: In a 60 mm dish containing 5 mL of DMEM, 2 × 10^6 cells were added and incubated for 24 h. In each plate, 10 μM GENI was added and incubated for 2 h. Cells were harvested and heated at a temperature ranging from 60 °C to 80 °C for PC12 cell samples. We obtained a certain amount of cerebral cortex and hippocampus samples, which were added with PBS and ground. After centrifugation, the supernatant was used as a sample, and we measured the protein concentration with a BCA kit (CoWin Biotech Co., Ltd., Taizhou, Jiangsu, China). The protein of the cerebral cortex or hippocampus was incubated with 10 μM GENI at 37 °C for 2 h and heated from 65 °C to 100 °C for the cerebral cortex sample but 43 °C to 67 °C and 65 °C to 100 °C for the hippocampus sample. Equal volumes of supernatant heated at each temperature point for the control and treatment groups were used for Western blot analysis with the antibody for specific proteins.

PC12 cells [2] = test: Neuroprotection assay (MTT) on H2O2-damaged PC12 cells; assay type: cell-based; conditions: GENI 1, 3, or 10 μM 24 h, then 0.8 mM H2O2 1 h
Method: We seeded 5 × 10^4 PC12 cells in each well of a 24-well plate and incubated the cells for 24 h at 37 °C in 5% CO2. The medium was changed to 1 mL of serum-free Dulbecco’s modified Eagle’s medium (DMEM; Thermo Scientific, Shanghai, China) containing the different test samples. To determine the optimal concentration of hydrogen peroxide (H2O2), we treated cells with 0.5% dimethyl sulfoxide (DMSO) for 24 h and then incubated the cells with different concentrations of H2O2 for 1 h. In this work, 0.8 mM H2O2 was selected as the best dose for the following experiment. To study the neuroprotective effects of GENI, we treated PC12 cells with resveratrol (RES 10 μM) or GENI (1, 3, or 10 μM) for 24 h and 0.8 mM H2O2 for 1 h. The medium was changed to 500 μL of serum-free DMEM containing 200 μg/mL 3-(4,5-dimethyltaizol-2-yl)-2,5-diphenyltetrazolium bromide (MTT) and incubated for an additional 2 h. The medium was completely removed, and 200 μL of DMSO was added to each well to dissolve the formed formazan crystals. The resulting formazan was detected at 570 nm using a microplate reader (Bio-Tec Instruments Inc., Winooski, VT, USA).

PC12 cells [3] = test: MDA content assay in PC12 cells; assay type: cell-based; conditions: GENI 3 or 10 μM 24 h, 0.8 mM H2O2 1 h
Method: To determine ROS levels in PC12 cells, we seeded 5 × 10^4 PC12 cells in each well of a 24-well plate. Cells were treated with RES (10 μM) or GENI (1, 3, and 10 μM) for 24 h, followed by 0.8 mM H2O2 for 1 h. DCFH-DA (2,7-dichlorodihydrofluorescein diacetate, final concentration, 10 μM) was then added to each well and incubated for 30 min. Cells were washed with PBS to remove extracellular DCFH-DA, and intercellular ROS was detected by using a SpectraMax M3 multimode microplate reader (Molecular Devices Corporation, San Jose, CA, USA) at an excitation wavelength of 488 nm and an emission wavelength of 525 nm. Meanwhile, DCF in PC12 cells was observed using a fluorescence microscope (HCS, Thermo Fisher, Science, Waltham, MA, USA). To detect malondialdehyde (MDA) content and total SOD enzymatic activities in PC12 cells, we seeded 2 × 10^6 PC12 cells in 60 mm dishes containing 5 mL of DMEM and cultured the cells for 24 h. PC12 cells were treated with RES (10 μM) or GENI (3 or 10 μM) for 24 h and then treated with 0.8 mM H2O2 for 1 h to determine the MDA content and total superoxide dismutase (SOD) activities. Cells were lysed and centrifuged. […] MDA quantification and total SOD activities were determined using MDA and SOD enzyme activity assay kits (Nanjing Jiancheng Bioengineering Institute, Nanjing, China) following the manufacturer’s instructions.

SMILES: CC(C)CCOC(=O)C1=CO[C@@H](O[C@@H]2O[C@H](CO)[C@@H](O)[C@H](O)[C@H]2O)C2C(CO)=CCC12 (some centres unmarked) [GENI, Geniposidic 4-isoamyl ester]
- dose-dependent response in SPR [1]: No significant dose-dependent response
- stability of PI3K against pronase (DARTS) (PI3K): no obvious effect
- thermal stability of MAPK (CETSA) (MAPK): not obvious
- survival rate of PC12 cells induced by H2O2 (PC12 cells [2]): significantly improve
- H2O2-induced increase in MDA (PC12 cells [3]): significantly reduce
